Each structure is given as a SMILES string. Activity calls are given as the source filed them. The rule behind the calls is not given here.

The subject of the series is CCRIS mutagenicity, Ames/micronucleus/aberration tests. The series can be described thus: CCRIS mutagenicity studies. From the text: The CCRIS database contains chemical records with carcinogenicity, mutagenicity, tumor promotion, and tumor inhibition test results. It was developed by the National Cancer Institute (NCI). Data are derived from studies cited in primary journals, current awareness tools, NCI reports, and other sources. Test results have been reviewed by experts in carcinogenesis and mutagenesis.
CCRIS provides historical information from the years 1985 - 2011. It is no longer updated.
This is an archive assay for CCRIS mutagenicity studies.

Where [1] appears, read: Test System: AMES SALMONELLA TYPHIMURIUM, Strain/Indicator: TA100, Metabolic Activation: NONE, Method: STANDARD PLATE.
Where [2] appears, read: Test System: AMES SALMONELLA TYPHIMURIUM, Strain/Indicator: TA98, Metabolic Activation: NONE, Method: STANDARD PLATE.
The mark [3] stands for this setting: Test System: AMES SALMONELLA TYPHIMURIUM, Strain/Indicator: TA98, Metabolic Activation: NONE, Method: PREINCUBATION
Where [4] appears, read: Test System: AMES SALMONELLA TYPHIMURIUM, Strain/Indicator: TA98, Metabolic Activation: RAT, LIVER, S-9, AROCLOR 1254, Method: PREINCUBATION
[5] abbreviates: Test System: AMES SALMONELLA TYPHIMURIUM, Strain/Indicator: TA100, Metabolic Activation: NONE, Method: PREINCUBATION
The mark [6] stands for this setting: Test System: AMES SALMONELLA TYPHIMURIUM, Strain/Indicator: TA100, Metabolic Activation: RAT, LIVER, S-9, AROCLOR 1254, Method: PREINCUBATION

With `C[n+]1ccn(CCC[n+]2ccc(C(N)=O)cc2)c1/C=N/O`, the mutagenic call was “inactive; negative” (Test System: AMES SALMONELLA TYPHIMURIUM, Strain/Indicator: TA97, Metabolic Activation: NONE, Method: STANDARD PLATE); “inactive; negative” (Test System: AMES SALMONELLA TYPHIMURIUM, Strain/Indicator: TA97, Metabolic Activation: S-9, Method: STANDARD PLATE); “inactive; negative” under setting [1]; “inactive; negative” (Test System: AMES SALMONELLA TYPHIMURIUM, Strain/Indicator: TA100, Metabolic Activation: S-9, Method: STANDARD PLATE); “inactive; negative” (Test System: AMES SALMONELLA TYPHIMURIUM, Strain/Indicator: TA104, Metabolic Activation: NONE, Method: STANDARD PLATE); “inactive; negative” (Test System: AMES SALMONELLA TYPHIMURIUM, Strain/Indicator: TA104, Metabolic Activation: S-9, Method: STANDARD PLATE). Besides, the mutagenic call is “inactive; negative” (Test System: AMES SALMONELLA TYPHIMURIUM, Strain/Indicator: TA1537, Metabolic Activation: NONE, Method: STANDARD PLATE); “inactive; negative” (Test System: AMES SALMONELLA TYPHIMURIUM, Strain/Indicator: TA1537, Metabolic Activation: S-9, Method: STANDARD PLATE); “inactive; negative” (Test System: AMES SALMONELLA TYPHIMURIUM, Strain/Indicator: TA1538, Metabolic Activation: NONE, Method: STANDARD PLATE); “inactive; negative” (Test System: AMES SALMONELLA TYPHIMURIUM, Strain/Indicator: TA1538, Metabolic Activation: S-9, Method: STANDARD PLATE).

Regarding `O=C(O)C1=NN(c2ccc(S(=O)(=O)O)cc2)C(=O)C1N=Nc1ccc(S(=O)(=O)O)cc1` (stereo not drawn), the mutagenic call was “inactive; negative” under setting [2]; “inactive; negative” (Test System: AMES SALMONELLA TYPHIMURIUM, Strain/Indicator: TA98, Metabolic Activation: RAT LIVER S-9, AROCLOR 1254, Method: STANDARD PLATE); “inactive; negative” under setting [1]; “inactive; negative” (Test System: AMES SALMONELLA TYPHIMURIUM, Strain/Indicator: TA100, Metabolic Activation: RAT LIVER S-9, AROCLOR 1254, Method: STANDARD PLATE); “inactive; negative” (Test System: Mouse lymphoma, Strain/Indicator: L5178Y (tk+/tk-), Metabolic Activation: None, Method: Suspension/plate); “inactive; negative” (Test System: Mouse lymphoma, Strain/Indicator: L5178Y (tk+/tk-), Metabolic Activation: Rat, Liver, S-9, Aroclor 1254, Method: Suspension/plate).

Consider `CC1=NCCc2c1[nH]c1cc(O)ccc21`, for which the mutagenic call runs as follows: (Test System: AMES SALMONELLA TYPHIMURIUM, Strain/Indicator: TA97, Metabolic Activation: NONE, Method: PREINCUBATION) “inactive; negative”; (Test System: AMES SALMONELLA TYPHIMURIUM, Strain/Indicator: TA97, Metabolic Activation: RAT, LIVER, S-9, AROCLOR 1254, Method: PREINCUBATION) “inactive; negative”; under setting [3], “inactive; negative”; under setting [4], “inactive; negative”; under setting [5], “inactive; negative”; under setting [6], “inactive; negative”. Also, the mutagenic call is “inactive; negative” (Test System: AMES SALMONELLA TYPHIMURIUM, Strain/Indicator: TA102, Metabolic Activation: NONE, Method: PREINCUBATION) and “inactive; negative” (Test System: AMES SALMONELLA TYPHIMURIUM, Strain/Indicator: TA102, Metabolic Activation: RAT, LIVER, S-9, AROCLOR 1254, Method: PREINCUBATION).

As to `OB(O)O`, the mutagenic call by setting is: (End Point: In vitro chromosomal aberrations, Test System: Human peripheral lymphocytes, Metabolic Activation: None) “active; positive (structural changes)”; (End Point: In vitro micronucleus, Test System: Human peripheral blood lymphocytes, Metabolic Activation: None) “inactive; negative”; (Test System: AMES SALMONELLA TYPHIMURIUM, Strain/Indicator: TA98, Metabolic Activation: HAMSTER, LIVER, S-9, AROCLOR 1254, Method: PREINCUBATION) “inactive; negative”; under setting [3], “inactive; negative”; under setting [2], “inactive; negative”; (Test System: AMES SALMONELLA TYPHIMURIUM, Strain/Indicator: TA98, Metabolic Activation: RAT LIVER S-9, PHENOBARBITAL AND BETA-NAPHTHOFLAVONE, Method: PREINCUBATION) “inactive; negative”. In addition, the mutagenic call is, setting by setting: under setting [4], “inactive; negative”; (Test System: AMES SALMONELLA TYPHIMURIUM, Strain/Indicator: TA98, Metabolic Activation: RAT, LIVER, S-9, BETA-NAPHTHOFLAVONE AND PHENOBARBITAL, Method: STANDARD PLATE) “inactive; negative”; (Test System: AMES SALMONELLA TYPHIMURIUM, Strain/Indicator: TA100, Metabolic Activation: HAMSTER, LIVER, S-9, AROCLOR 1254, Method: PREINCUBATION) “inactive; negative”; under setting [5], “inactive; negative”; (Test System: AMES SALMONELLA TYPHIMURIUM, Strain/Indicator: TA100, Metabolic Activation: RAT LIVER S-9, PHENOBARBITAL AND BETA-NAPHTHOFLAVONE, Method: PREINCUBATION) “inactive; negative”; under setting [6], “inactive; negative”. Further, the mutagenic call is, setting by setting: (Test System: AMES SALMONELLA TYPHIMURIUM, Strain/Indicator: TA100, Metabolic Activation: RAT, LIVER, S-9, BETA-NAPHTHOFLAVONE AND PHENOBARBITAL, Method: STANDARD PLATE) “inactive; negative”; (Test System: AMES SALMONELLA TYPHIMURIUM, Strain/Indicator: TA102, Metabolic Activation: NONE, Method: STANDARD PLATE) “inactive; negative”; (Test System: AMES SALMONELLA TYPHIMURIUM, Strain/Indicator: TA102, Metabolic Activation: RAT, LIVER, S-9, BETA-NAPHTHOFLAVONE AND PHENOBARBITAL, Method: STANDARD PLATE) “inactive; negative”; (Test System: AMES SALMONELLA TYPHIMURIUM, Strain/Indicator: TA1535, Metabolic Activation: HAMSTER, LIVER, S-9, AROCLOR 1254, Method: PREINCUBATION) “inactive; negative”; (Test System: AMES SALMONELLA TYPHIMURIUM, Strain/Indicator: TA1535, Metabolic Activation: NONE, Method: PREINCUBATION) “inactive; negative”; (Test System: AMES SALMONELLA TYPHIMURIUM, Strain/Indicator: TA1535, Metabolic Activation: RAT LIVER S-9, PHENOBARBITAL AND BETA-NAPHTHOFLAVONE, Method: PREINCUBATION) “inactive; negative”. Further, the mutagenic call was “inactive; negative” (Test System: AMES SALMONELLA TYPHIMURIUM, Strain/Indicator: TA1535, Metabolic Activation: RAT, LIVER, S-9, AROCLOR 1254, Method: PREINCUBATION); “inactive; negative” (Test System: AMES SALMONELLA TYPHIMURIUM, Strain/Indicator: TA1537, Metabolic Activation: HAMSTER, LIVER, S-9, AROCLOR 1254, Method: PREINCUBATION); “inactive; negative” (Test System: AMES SALMONELLA TYPHIMURIUM, Strain/Indicator: TA1537, Metabolic Activation: NONE, Method: PREINCUBATION); “inactive; negative” (Test System: AMES SALMONELLA TYPHIMURIUM, Strain/Indicator: TA1537, Metabolic Activation: RAT LIVER S-9, PHENOBARBITAL AND BETA-NAPHTHOFLAVONE, Method: PREINCUBATION); “inactive; negative” (Test System: AMES SALMONELLA TYPHIMURIUM, Strain/Indicator: TA1537, Metabolic Activation: RAT, LIVER, S-9, AROCLOR 1254, Method: PREINCUBATION); “inactive; negative” (Test System: AMES SALMONELLA TYPHIMURIUM, Strain/Indicator: TA1538, Metabolic Activation: NONE, Method: PREINCUBATION). Also, the mutagenic call is “inactive; negative” (Test System: AMES SALMONELLA TYPHIMURIUM, Strain/Indicator: TA1538, Metabolic Activation: RAT LIVER S-9, PHENOBARBITAL AND BETA-NAPHTHOFLAVONE, Method: PREINCUBATION); “inactive; negative” (Test System: E.COLI, Strain/Indicator: WP2UVRA, Metabolic Activation: NONE, Method: PREINCUBATION); “inactive; negative” (Test System: E.COLI, Strain/Indicator: WP2UVRA, Metabolic Activation: RAT LIVER S-9, PHENOBARBITAL AND BETA-NAPHTHOFLAVONE, Method: PREINCUBATION); “inactive; negative” (Test System: MOUSE LYMPHOMA, Strain/Indicator: L5178Y (TK+/TK-), Metabolic Activation: NONE, Method: SUSPENSION/PLATE); “inactive; negative” (Test System: MOUSE LYMPHOMA, Strain/Indicator: L5178Y (TK+/TK-), Metabolic Activation: RAT, LIVER, S-9, AROCLOR 1254, Method: SUSPENSION/PLATE).

The values above are taken from PubChem BioAssay AID1259407 (Chemical Carcinogenesis Research Information System (CCRIS), 2018).
